Test results as given in patent US11203594B2, “Anti-proliferative agents for treating PAH” (Pfizer Inc., priority 2019, dated 2021).
Read-outs that look alike come from different tables or passages of the source.

Assays:
CDK4/Cyclin D1 = CDK4/Cyclin D1 (Homo sapiens (Human), UniProt P11802); assay: CDK4/Cyclin D1 CHEF assay (Chelation-Enhanced Fluorescence), Ki by Morrison equation; format: biochemical; details: geometric mean, read-out: CDK4/Cyclin D1 GMean Ki
Source text: (§1) In Vitro Purified Enzyme Assays to Determine Potency for CDKs
(§2) CDK4/Cyclin D1 and CDK6/Cylcin D3 CHEF Assay
(§3) The Chelation-Enhanced Fluorescence (CHEF) monitors the phosphorylation state in real time where the level of fluorescence is directly proportional to the amount of phosphorylated substrate. CHEF exploits a synthetic α-amino acid with a side chain bearing an 8-hydroxyquinoline derivative (sulfonamido-oxine, Sox) which, upon coordination to Mg(II), relays information on the phosphorylation state of a proximal serine, threonine or tyrosine residue in peptide-based kinase substrates. Phosphorylation of a specific peptide (Catalog # AQT0258) from AssayQuant Technologies results in an increase in fluorescence at the excitation and emission wavelengths of 360 nm Ex/485 nm Em.
(§4) Examples along with DMSO (negative) and Palbociclib (positive) controls were added to 384-well plates at 100-fold their final concentrations followed by the addition of 10 nM CDK4/Cyclin D1 (LJIC-2007F1) or 10 nM CDK6/Cyclin D3 (LJIC-2009H2) for a 20 minute pre-incubation in assay buffer containing 40 mM HEPES, 1 mM Dithiothreito (DTT, 10 mM MgCl2, 1% Glycerol, 0.1% BSA. Enzyme reactions were initiated by the addition of AssayQuant Technologies peptide and ATP substrates (10 μM CHEF peptide (Catalog # AQT0258), 2 mM ATP) and allowed to proceed for 2 hours followed by fluorescence read of the reaction. Ki determinations were made from a plot of the fractional velocity as a function of inhibitor concentration fit to the Morrison equation with the enzyme concentration as a variable.
(§5) For all the CDK4 and CDK6 assays the Ki constant for compounds were calculated for each enzyme using the Morrison equation. Fractional activity was measured at different compound concentrations, [I] and the data fit to the Morrison equation where [E] is the enzyme concentration, [S] is the ATP concentration, and Kn^App is the apparent Km for ATP for each enzyme under each assay format. With the Ki calculations dependent on the assay conditions for each assay format the resulting Ki becomes assay independent with a strong one to one correlation of Ki values for compounds tested in both assay formats.
(§6) In Table 2, assay data are presented to two (2) significant figures as the geometric mean (Ki) based on the number of replicates listed (Number). A cell having NA means there was no data for that Example in the indicated assay.

CDK6/Cyclin D3 = CDK6/Cyclin D3 (Homo sapiens (Human), UniProt Q00534); assay: CDK6/Cyclin D3 CHEF assay (Chelation-Enhanced Fluorescence), Ki by Morrison equation; format: biochemical; details: geometric mean, read-out: CDK6/Cyclin D3: GMean Ki
CDK6/Cyclin D3, sequence (Q00534 whole entry): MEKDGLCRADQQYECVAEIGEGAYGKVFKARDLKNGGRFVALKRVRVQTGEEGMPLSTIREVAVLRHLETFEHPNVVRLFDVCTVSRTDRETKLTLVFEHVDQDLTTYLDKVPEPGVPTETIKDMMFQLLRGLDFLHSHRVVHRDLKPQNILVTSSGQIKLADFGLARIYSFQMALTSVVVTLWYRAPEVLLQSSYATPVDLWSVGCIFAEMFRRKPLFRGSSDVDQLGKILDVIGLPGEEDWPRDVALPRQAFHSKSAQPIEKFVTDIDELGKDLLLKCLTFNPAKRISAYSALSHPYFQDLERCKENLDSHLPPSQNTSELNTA
CDK6/Cyclin D3, sequence (P30281 whole entry partner): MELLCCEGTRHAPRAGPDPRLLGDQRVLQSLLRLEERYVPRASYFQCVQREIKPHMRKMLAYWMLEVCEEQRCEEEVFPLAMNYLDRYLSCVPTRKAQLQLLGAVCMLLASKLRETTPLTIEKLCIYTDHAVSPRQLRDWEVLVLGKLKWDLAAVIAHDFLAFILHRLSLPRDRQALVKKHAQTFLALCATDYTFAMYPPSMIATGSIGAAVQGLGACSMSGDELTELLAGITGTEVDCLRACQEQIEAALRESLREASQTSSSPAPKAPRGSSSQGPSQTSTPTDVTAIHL
Source text: as §1, §2, §3, §4, §5, §6

CDK4/Cyclin D1, sequence (P11802 whole entry): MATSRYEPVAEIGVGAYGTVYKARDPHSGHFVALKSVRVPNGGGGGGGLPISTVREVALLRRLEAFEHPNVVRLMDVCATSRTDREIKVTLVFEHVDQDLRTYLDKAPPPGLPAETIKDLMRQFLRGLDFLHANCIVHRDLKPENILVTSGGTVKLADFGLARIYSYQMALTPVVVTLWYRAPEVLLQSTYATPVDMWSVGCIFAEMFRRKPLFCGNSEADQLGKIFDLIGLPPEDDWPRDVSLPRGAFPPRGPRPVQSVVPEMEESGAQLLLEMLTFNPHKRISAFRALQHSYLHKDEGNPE
CDK4/Cyclin D1, sequence (P24385 whole entry partner): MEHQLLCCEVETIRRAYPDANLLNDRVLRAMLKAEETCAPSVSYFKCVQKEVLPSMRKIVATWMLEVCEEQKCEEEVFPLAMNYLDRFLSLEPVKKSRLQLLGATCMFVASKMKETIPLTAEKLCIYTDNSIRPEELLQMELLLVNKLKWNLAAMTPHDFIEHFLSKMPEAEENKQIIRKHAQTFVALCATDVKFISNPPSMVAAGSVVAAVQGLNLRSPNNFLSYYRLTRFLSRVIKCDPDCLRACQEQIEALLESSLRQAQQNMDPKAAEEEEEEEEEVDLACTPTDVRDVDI

Row | Structure (SMILES) | Ki (CDK4/Cyclin D1; tested in CHEF Assay) | Ki (CDK6/Cyclin D3; tested in CHEF Assay) | Ki (CDK4/Cyclin D1; tested in both CHEF and MSA) | Ki (CDK6/Cyclin D3; tested in both CHEF and MSA)
1 | CC(=O)c1c(C)c2cnc(N[C@@H]3CCOC[C@H]3O)nc2n([C@H]2CCC[C@]2(C)O)c1=O (mixture of isomers) [Example 6, 6-Acetyl-8-[(1S,2S)-2-hydroxy-2-methylcyclopentyl]-2-{[(3S,4R)-3-hydroxytetrahydro-2H-pyran-4-yl]amino}-5-methylpyrido[2,3-d]pyrimidin-7(8H)-one and 6-Acetyl-8-[(1R,2R)-2-hydroxy-2-methylcyclopentyl]-2-{[(3S,4R)-3-hydroxytetrahydro-2H-pyran-4-yl]amino}-5-methylpyrido[2,3-d]pyrimidin-7(8H)-one] | 113 nM | 190 nM | – | –
2 | CC(=O)c1c(C)c2cnc(N[C@@H]3CCOC[C@H]3O)nc2n([C@H]2CCC[C@]2(C)O)c1=O (mixture of isomers) [Example 7, 6-Acetyl-8-[(1S,2S)-2-hydroxy-2-methylcyclopentyl]-2-{[(3S,4R)-3-hydroxytetrahydro-2H-pyran-4-yl]amino}-5-methylpyrido[2,3-d]pyrimidin-7(8H)-one and 6-Acetyl-8-[(1R,2R)-2-hydroxy-2-methylcyclopentyl]-2-{[(3S,4R)-3-hydroxytetrahydro-2H-pyran-4-yl]amino}-5-methylpyrido[2,3-d]pyrimidin-7(8H)-one] | 7.2 nM | 7.7 nM | – | –
3 | CC(=O)c1c(C)c2cnc(N[C@@H]3CCOC(C)(C)[C@H]3O)nc2n(C2CCCC2)c1=O (mixture of isomers) [Example 8, 6-Acetyl-8-cyclopentyl-2-{[(3S,4R)-3-hydroxy-2,2-dimethyltetrahydro-2H-pyran-4-yl]amino}-5-methylpyrido[2,3-d]pyrimidin-7(8H)-one and 6-Acetyl-8-cyclopentyl-2-{[(3R,4S)-3-hydroxy-2,2-dimethyltetrahydro-2H-pyran-4-yl]amino}-5-methylpyrido[2,3-d]pyrimidin-7(8H)-one] | > 1200 nM | > 560 nM | – | –
4 | CC(=O)c1c(C)c2cnc(N[C@@H]3CCOC(C)(C)[C@H]3O)nc2n(C2CCCC2)c1=O (mixture of isomers) [Example 9, 6-Acetyl-8-cyclopentyl-2-{[(3S,4R)-3-hydroxy-2,2-dimethyltetrahydro-2H-pyran-4-yl]amino}-5-methylpyrido[2,3-d]pyrimidin-7(8H)-one and 6-Acetyl-8-cyclopentyl-2-{[(3R,4S)-3-hydroxy-2,2-dimethyltetrahydro-2H-pyran-4-yl]amino}-5-methylpyrido[2,3-d]pyrimidin-7(8H)-one] | 2.7 nM | 6.7 nM | – | –
5 | CC(=O)c1c(C)c2cnc(N[C@@H]3CCOC[C@H]3O)nc2n([C@@H]2CC[C@@H]3C[C@@H]32)c1=O (mixture of isomers) [Example 12, 6-Acetyl-8-[(1S,2R,5R)-bicyclo[3.1.0]hexan-2-yl]-2-{[(3S,4R)-3-hydroxytetrahydro-2H-pyran-4-yl]amino}-5-methylpyrido[2,3-d]pyrimidin-7(8H)-one and 6-Acetyl-8-[(1R,2S,5S)-bicyclo[3.1.0]hexan-2-yl]-2-{[(3S,4R)-3-hydroxytetrahydro-2H-pyran-4-yl]amino}-5-methylpyrido[2,3-d]pyrimidin-7(8H)-one] | 8.5 nM | 9.7 nM | – | –
6 | CC(=O)c1c(C)c2cnc(N[C@@H]3CCOC[C@H]3O)nc2n([C@@H]2CC[C@@H]3C[C@@H]32)c1=O (mixture of isomers) [Example 13, 6-Acetyl-8-[(1S,2R,5R)-bicyclo[3.1.0]hexan-2-yl]-2-{[(3S,4R)-3-hydroxytetrahydro-2H-pyran-4-yl]amino}-5-methylpyrido[2,3-d]pyrimidin-7(8H)-one and 6-Acetyl-8-[(1R,2S,5S)-bicyclo[3.1.0]hexan-2-yl]-2-{[(3S,4R)-3-hydroxytetrahydro-2H-pyran-4-yl]amino}-5-methylpyrido[2,3-d]pyrimidin-7(8H)-one] | 2.1 nM | 3.3 nM | – | –
7 | CC(=O)c1c(C)c2cnc(N[C@@H]3CCOC[C@H]3O)nc2n([C@@H]2CCC[C@]2(C)F)c1=O (mixture of isomers) [Example 16, 6-Acetyl-8-[(1R,2S)-2-fluoro-2-methylcyclopentyl]-2-{[(3S,4R)-3-hydroxytetrahydro-2H-pyran-4-yl]amino}-5-methylpyrido[2,3-d]pyrimidin-7(8H)-one and 6-Acetyl-8-[(1S,2R)-2-fluoro-2-methylcyclopentyl]-2-{[(3S,4R)-3-hydroxytetrahydro-2H-pyran-4-yl]amino}-5-methylpyrido[2,3-d]pyrimidin-7(8H)-one] | 2.6 nM | 5 nM | – | –
8 | CC(=O)c1c(C)c2cnc(N[C@@H]3CCOC[C@H]3O)cc2n(C2CCC(O)C2)c1=O (single isomer, unassigned) [Example 14] | 0.9 nM | 2.6 nM | – | –
9 | CC(=O)c1c(C)c2cnc(N[C@@H]3CCOC[C@H]3O)cc2n(C2CCC(O)C2)c1=O (single isomer, unassigned) [Example 15] | 3.8 nM | 7.7 nM | – | –
10 | CC(=O)c1c(C)c2cnc(N[C@@H]3CCOC[C@H]3O)nc2n([C@H]2CCC[C@]2(C)F)c1=O (single isomer, unassigned) [Example 23] | > 1100 nM | > 560 nM | – | –
11 | CC(=O)c1c(C)c2cnc(N[C@@H]3CCOC[C@H]3O)nc2n(C2CCC2)c1=O [Example 1, 6-Acetyl-8-cyclobutyl-2-{[(3S,4R)-3-hydroxytetrahydro-2H-pyran-4-yl]amino}-5-methylpyrido[2,3-d]pyrimidin-7(8H)-one] | 1.8 nM | 2 nM | – | –
12 | CC(=O)c1c(C)c2cnc(N[C@@H]3CCOC[C@H]3O)nc2n(C2CCCC2)c1=O [Example 2, 6-acetyl-8-cyclopentyl-2-{[(3S,4R)-3-hydroxytetrahydro-2H-pyran-4-yl]amino}-5-methylpyrido[2,3-d]pyrimidin-7(8H)-one] | – | – | 0.8 nM | 1.2 nM
13 | CC(=O)c1c(C)c2cnc(N[C@@H]3CCOC[C@H]3O)nc2n(C2CC3(CNC3)C2)c1=O [Example 3, 6-Acetyl-8-(2-azaspiro[3.3]heptan-6-yl)-2-{[(3S,4R)-3-hydroxytetrahydro-2H-pyran-4-yl]amino}-5-methylpyrido[2,3-d]pyrimidin-7(8H)-one] | 1.1 nM | 2.1 nM | – | –
14 | CC(=O)c1c(C)c2cnc(N[C@@H]3CCOC[C@H]3O)nc2n([C@@H]2CCC[C@@H]2C)c1=O [Example 4, 6-Acetyl-2-{[(3S,4R)-3-hydroxytetrahydro-2H-pyran-4-yl]amino}-5-methyl-8-[(1R,2S)-2-methylcyclopentyl]pyrido[2,3-d]pyrimidin-7(8H)-one] | 1.6 nM | 2.1 nM | – | –
15 | CC(=O)c1c(C)c2cnc(N[C@@H]3CCOC[C@H]3O)cc2n(C2CCCC2)c1=O [Example 5, 3-Acetyl-1-cyclopentyl-7-{[(3S,4R)-3-hydroxytetrahydro-2H-pyran-4-yl]amino}-4-methyl-1,6-naphthyridin-2(1H)-one] | – | – | 0.4 nM | 1.3 nM
16 | CC[C@H]1CCC[C@H]1n1c(=O)c(C(C)=O)c(C)c2cnc(N[C@@H]3CCOC[C@H]3O)nc21 [Example 10, 6-Acetyl-8-[(1R,2S)-2-ethylcyclopentyl]-2-{[(3S,4R)-3-hydroxytetrahydro-2H-pyran-4-yl]amino}-5-methylpyrido[2,3-d]pyrimidin-7(8H)-one] | 2.7 nM | 5 nM | – | –
17 | CC(=O)c1c(C)c2cnc(N[C@@H]3CCOC[C@H]3O)cc2n([C@H]2CCOC2)c1=O [Example 11, 3-Acetyl-7-{[(3S,4R)-3-hydroxytetrahydro-2H-pyran-4-yl]amino}-4-methyl-1-[(3S)-tetrahydrofuran-3-yl]-1,6-naphthyridin-2(1H)-one] | 34 nM | 16 nM | – | –
18 | CC(=O)c1c(C)c2cnc(N[C@@H]3CCOC[C@H]3O)nc2n([C@H]2CCNC2)c1=O [Example 18, 6-Acetyl-2-{[(3S,4R)-3-hydroxytetrahydro-2H-pyran-4-yl]amino}-5-methyl-8-[(3S)-pyrrolidin-3-yl]pyrido[2,3-d]pyrimidin-7(8H)-one] | 9.6 nM | 34 nM | – | –
19 | CC(=O)c1c(C)c2cnc(N[C@@H]3CCOC[C@H]3O)nc2n(C2CC(C)(C)C2)c1=O [Example 19, 6-Acetyl-8-(3,3-dimethylcyclobutyl)-2-{[(3S,4R)-3-hydroxytetrahydro-2H-pyran-4-yl]amino}-5-methylpyrido[2,3-d]pyrimidin-7(8H)-one] | 4.5 nM | 4.2 nM | – | –
